The values that follow are results of earlier work, collected in US20050281872A1, “Enhanced compliance antiviral medicaments and methods of manufacture and use” (priority 2004, published 2005).

The conditions of data set [1]: ribavirin powder.
For data set [2] the following is noted: patients receiving ribavirin antiviral therapy.
For data set [3] the following is noted: taking antacids containing magnesium, aluminum, and simethicone.

In the case of `NC(=O)c1ncn([C@@H]2O[C@H](CO)[C@@H](O)[C@H]2O)n1` [ribavirin], where the note is “alcohol”, the solubility in alcohol result is reported as “only sparingly soluble”. The solubility in water entry (water) is recorded as “freely soluble”. Moreover, the “dissolution time in water” value in data set [1] is recorded as “almost instantaneous”. Also, the “effectiveness in treating hepatitis C” value with hepatitis C virus (HCV) (ribavirin alone, without interferon) was “not effective”. Moreover, the “patients requiring a reduction in dose or discontinuation of therapy because of side effects” value in data set [2] is “up to 20%”. Moreover, the “decrease in available ribavirin” value in data set [3] is 14%.
Consider interferon, for which, in the data set with hepatitis C virus (HCV) (high dose of interferon for six months), the “patients who responded positively” value is recorded as “nearly half”.
